Converted amounts (≈) assume the structure as drawn. Where two headings read alike, the source gives them in different places.
Key:
[1] = test system: ethanol ulcer in the gland gastric region; test: Ethanol ulcer; format: in vivo; conditions: rats fasted 24 hours, drug oral, 99.5% ethanol 1 ml/rat after one hour, size of ulcer one hour later; for Suppression: dose not given
Experimental: Ethanol Ulcer Rats were fasted for 24 hours and orally administered with a drug. After one hour, 99.5% ethanol (1 ml/rat) was fed through oral administration. After one hour of ethanol administration, the abdomens of the rats were dissected and the size of ulcer in the gland gastric region was measured for each rat.

Helicobacter pylori = test: Anti-Helicobacter-pylori action (agar plate dilution MIC); format: cell-based; conditions: clinically isolated 10 bacterial strains, agar plate dilution method
Experimental: Anti-Helicobacter-pylori Action
Using clinically isolated 10 bacterial strains, the minimum inhibitory concentration (MIC) was measured according to the agar plate dilution method.

[2] = test system: HCl-ethanol ulcer in the gland gastric region; test: HCl-ethanol ulcer; format: in vivo, Rats; conditions: rats fasted 24 hours, drug oral, 60% ethanol containing 0.15 N hydrochloric acid 1 ml/rat after one hour, size of ulcer one hour later; dose not given
Experimental: HCl-ethanol Ulcer Rats were fasted for 24 hours and orally administered with a drug. After one hour, 60% ethanol containing 0.15 N hydrochloric acid (1 ml/rat) was perorally administered to each rat. One hour after ethanol administration, the size of ulcer in the gland gastric region was measured for evaluation of anti-ulcer effects of the drug.

[3] = Helicobacter pylori, read-out: MIC

| Structure (SMILES) | Suppression [1] [%] | MIC (Helicobacter pylori) [µg/mL] | other results |
| --- | --- | --- | --- |
| O=S(=O)(c1ccc(Cl)cc1)N(CCN1CCCC1)c1ccccc1NCCOc1ccc(Cl)cc1 [Example 8, N-(4-Chlorobenzenesulfonyl)-N-[2-(1-pyrolidino)ethyl]-N′-[2-(4-chlorophenoxy)ethyl]-o-phenylenediamine] | 86 | 1.56 to 6.25 | – |
| NCCN(c1cccnc1NCCOc1ccc(Cl)cc1)S(=O)(=O)c1ccc(Cl)cc1 [Example 106, 2-[2-(4-Chlorophenoxy)ethyl]amino-3-[N-(2-aminoethyl)-N-(4-chlorobenzenesulfonyl)]aminopyridine] | 98 | – | ED50 [1]: 8.4 mg/kg |
| NCCN(c1ccccc1OCCNc1ccc(Cl)cc1)S(=O)(=O)c1ccc(Cl)cc1 [Example 122, 1-[2-(4-Chlorophenyl)aminoethoxy]-2-[N-(2-aminoethyl)-N-(4-chlorobenzenesulfonyl)]aminobenzene] | 99 | 12.5 to 25 | – |
| O=S(=O)(c1ccc(Cl)cc1)N(CCCc1ccncc1)c1ccccc1NCCOc1ccc(Cl)cc1 [Example 10, N-(4-Chlorobenzenesulfonyl)-N-[3-(4-pyridyl)propyl]-N′-[2-(4-chlorophenoxy)ethyl]-o-phenylenediamine] | 82 | – | MIC (Helicobacter pylori; [3]): 25 to 100 µg/mL (≈ 44.9 to 180 µM) |
| NCCN(c1cccnc1OCCNc1ccc(Cl)cc1)S(=O)(=O)c1ccc(Cl)cc1 [Example 113, 2-[2-(4-Chlorophenyl)aminoethoxy]-3-[N-(2-aminoethyl)-N-(4-chlorobenzenesulfonyl)]aminopyridine] | 87 | 25 to 50 | – |
| NCCN(c1ccccc1NCC=Cc1ccc(Cl)cc1)S(=O)(=O)c1ccc(Cl)cc1 [Example 62, N-(2-Aminoethyl)-N-(4-chlorobenzenesulfonyl)-N′-(4-chlorocinnamyl)-o-phenylenediamine] | – | – | MIC (Helicobacter pylori; [3]): 1.56 to 12.5 µg/mL (≈ 3.27 to 26.2 µM) |
| Cc1ccc(S(=O)(=O)N(CCN(C)C)c2ccccc2NCCOc2ccc(Cl)cc2)cc1.Cl [Example 36, N-[2-(Dimethylamino)ethyl]-N-(p-toluenesulfonyl)-N′-[2-(4-chlorophenoxy)ethyl]-o-phenylenediamine Hydrochloride] | – | – | Suppression [2]: 92% |
| CN(C)CCN(c1ccccc1N(CCOc1ccc(Cl)cc1)Cc1ccccc1)S(=O)(=O)c1ccc(Cl)cc1.Cl [Example 71, N-[2-(Dimethylamino)ethyl]-N-(4-chlorobenzenesulfonyl)-N′-benzyl-N′-[2-(4-chlorophenoxy)ethyl]-o-phenylenediamine Hydrochloride] | – | – | Suppression [2]: 99% |
| COc1ccc(NCCNc2ncccc2N(CCN)S(=O)(=O)c2ccc(OC)cc2)cc1 [Example 112, 3-[N-(2-Aminoethyl)-N-(4-methoxybenzenesulfonyl)]amino-2-[2-(4-methoxyphenyl)aminoethyl]aminopyridine] | – | 12.5 to 50 | – |
| CNC(=NC#N)NCCOCCN(c1ccccc1NCCOc1ccc(Cl)cc1)S(=O)(=O)c1ccc(Cl)cc1 [Example 14, N-(4-Chlorobenzenesulfonyl)-N-[2-(2-cyano-3-methylguanidino)ethoxyethyl]-N′-[2-(4-chlorophenoxy)ethyl]-o-phenylenediamine] | – | – | MIC (Helicobacter pylori; [3]): 6.25 to 50 µg/mL (≈ 10.3 to 82.6 µM) |
| Cc1ccc(OCCNc2ccccc2N(CCN(C)C)S(=O)(=O)c2ccc(Cl)cc2)cc1.Cl [Example 53, N-[2-(Dimethylamino)ethyl]-N-(4-chlorobenzenesulfonyl)-N′-[2-(4-methylphenoxy)ethyl]-o-phenylenediamine Hydrochloride] | – | – | Suppression [2]: 92% |
| NCCN(c1ccccc1NCCNc1ccc(Cl)cc1)S(=O)(=O)c1ccc(Cl)cc1 [Example 60, N-(2-Aminoethyl)-N-(4-chlorobenzenesulfonyl)-N′-[2-(4-chlorophenylamino)ethyl]-o-phenylenediamine] | – | – | MIC (Helicobacter pylori; [3]): 6.25 to 25 µg/mL (≈ 13 to 52.1 µM) |
| O=S(=O)(c1ccc(Cl)cc1)N(CCN1CCNCC1)c1cccnc1NCCNc1ccc(Cl)cc1 [Example 97, 3-[N-(4-Chlorobenzenesulfonyl)-N-[2-(1-piperazinyl)ethyl]]amino-2-[2-(4-chlorophenyl)aminoethyl]aminopyridine] | 81 | 25 to 100 | – |
| Cc1ccc(NCCNc2ncccc2N(CCN)S(=O)(=O)c2ccc(C)cc2)cc1 [Example 114, 3-[N-(2-Aminoethyl)-N-(p-toluenesulfonyl)]amino-2-[2-(p-tolyl)aminoethyl]aminopyridine] | – | 12.5 to 25 | – |
| NCCOCCN(c1ccccc1NCCOc1ccc(F)cc1)S(=O)(=O)c1ccc(Cl)cc1 [Example 47, N-[2-(2-Amino)ethoxyethyl]-N-(4-chlorobenzenesulfonyl)-N′-[2-(4-fluorophenoxy)ethyl]-o-phenylenediamine] | 100 | – | – |
| CN(C)CCN(c1ccccc1NCCOc1ccc(Br)cc1)S(=O)(=O)c1ccc(Cl)cc1.Cl [Example 54, N-[2-(Dimethylamino)ethyl]-N-(4-chlorobenzenesulfonyl)-N′-[2-(4-bromophenoxy)ethyl]-o-phenylenediamine Hydrochloride] | – | – | Suppression [2]: 77% |

| Structure (SMILES) | Suppression [1] [%] | MIC (Helicobacter pylori) [µg/mL] | other results |
| --- | --- | --- | --- |
| CCN(CCNc1ncccc1N(CCN)S(=O)(=O)c1ccc(Cl)cc1)c1ccc(Cl)cc1 [Example 116, 2-[2-[N-(4-Chlorophenyl)-N-ethyl]aminoethyl]amino-3-[N-(2-aminoethyl)-N-(4-chlorobenzenesulfonyl)]aminopyridine] | 99 | 6.25 to 12.5 | – |
| CN(C)CCN(c1ccccc1Sc1ccc(Cl)cc1)S(=O)(=O)c1ccc(Cl)cc1.Cl [Example 142, 2-(4-Chlorophenylthio)-N-(4-chlorobenzenesulfonyl)-N-(2-dimethylaminoethyl)aniline.HCl] | – | – | Suppression [2]: 98% |
| O=S(=O)(c1ccc(Cl)cc1)N(CCO)c1ccccc1NCCOc1ccc(Cl)cc1 [Example 9, N-(4-Chlorobenzenesulfonyl)-N-(2-hydroxyethyl]-N′-[2-(4-chlorophenoxy)ethyl]-o-phenylenediamine] | 85 | – | MIC (Helicobacter pylori; [3]): 25 to 50 µg/mL (≈ 51.9 to 104 µM) |
| NCCOCCN(c1ccccc1NCCOc1ccc(Cl)cc1)S(=O)(=O)c1ccccc1 [Example 33] | 83 | – | – |
| COc1ccc(S(=O)(=O)N(CCN)c2ccccc2NCCOc2ccc(Cl)cc2)cc1 [Example 11, N-(2-Aminoethyl)-N-(4-methoxybenzenesulfonyl)-N′-[2-(4-chlorophenoxy)ethyl]-o-phenylenediamine] | 96 | – | – |
| CN(C)CCN(c1cccnc1N1CCN(c2ccc(Cl)cc2)CC1)S(=O)(=O)c1ccc(Cl)cc1 [Example 138, 2-[4-(4-Chlorophenyl)-1-piperazino]-3-[N-(2-dimethylaminoethyl)-N-(4-chlorobenzenesulfonyl)]aminopyridine] | – | 3.13 to 12.5 | – |
| NCCN(c1ccccc1NCCSc1ccc(Cl)cc1)S(=O)(=O)c1ccc(Cl)cc1 [Example 65, N-(2-Aminoethyl)-N-(4-chlorobenzenesulfonyl)-N′-[2-(4-Chlorophenylthio)ethyl]-o-phenylenediamine] | – | – | MIC (Helicobacter pylori; [3]): 6.25 to 25 µg/mL (≈ 12.6 to 50.4 µM) |
| NCCN(c1cccnc1NCCN(c1ccc(Cl)cc1)S(=O)(=O)c1ccc(Cl)cc1)S(=O)(=O)c1ccc(Cl)cc1 [Example 111, 2-[2-[N-(4-Chlorophenyl)-N-(4-chlorobenzenesulfonyl)]aminoethyl]amino-3-[N-(2-aminoethyl)-N-(4-chlorobenzenesulfonyl)]aminopyridine] | 100 | 25 (≈ 38.2 µM) | – |
| NCCOCCN(c1ccccc1NCCOc1ccc(Cl)cc1)S(=O)(=O)c1ccc(F)cc1 [Example 41, N-[2-(2-Amino)ethoxyethyl]-N-(4-fluorobenzenesulfonyl)-N′-[2-(4-chlorophenoxy)ethyl]-o-phenylenediamine] | 93 | – | – |
| CN(C)CCN(c1ccc(NCCOc2ccc(Cl)cc2)cc1)S(=O)(=O)c1ccccc1Cl.Cl [Example 56, N-[2-(Dimethylamino)ethyl]-N-(2-chlorobenzenesulfonyl)-N′-[2-(4-chlorophenoxy)ethyl]-p-phenylenediamine Hydrochloride] | – | – | Suppression [2]: 88% |
| NCCN(c1cccnc1N1CCN(c2ccc(Cl)cc2)C(=O)C1=O)S(=O)(=O)c1ccc(Cl)cc1 [Example 92, 3-[N-(4-Chlorobenzenesulfonyl)-N-(2-aminoethyl)]amino-2-[4-(4-chlorophenyl)-2,3-dioxo-1-piperadino]pyridine] | – | >100 | – |
| O=S(=O)(Nc1cccnc1NCCNc1ccc(Cl)cc1)c1ccc(Cl)cc1 [Example 77] | – | 6.25 to 12.5 | – |
| CN(C)CCN(c1cccc(NCCOc2ccc(Cl)cc2)c1)S(=O)(=O)c1ccc(Cl)cc1.Cl [Example 55, N-[2-(Dimethylamino)ethyl]-N-(4-chlorobenzenesulfonyl)-N′-[2-(4-chlorophenoxy)ethyl]-m-phenylenediamine Hydrochloride] | – | – | Suppression [2]: 88% |
| O=C(NCCOCCN(c1ccccc1NCCOc1ccc(Cl)cc1)S(=O)(=O)c1ccc(Cl)cc1)NC1CCCCC1 [Example 17, N-(4-Chlorobenzenesulfonyl)-N-[2-(2-cyclohexylureido)ethoxyethyl]-N′-[2-(4-chlorophenoxy)ethyl]-o-phenylenediamine] | – | 25 to 50 | – |
| NCCN(c1cccnc1N1CCN(c2ccc(Cl)cc2)CC1)S(=O)(=O)c1ccc(Cl)cc1 [Example 136, 2-[4-(4-Chlorophenyl)-1-piperazino]-3-[N-(2-aminoethyl)-N-(4-chlorobenzenesulfonyl)]aminopyridine] | 80 | 3.13 to 12.5 | – |
| Cc1ccc(S(=O)(=O)N(CCOCCN)c2ccccc2NCCOc2ccc(Cl)cc2)cc1 [Example 35, N-[2-(2-Amino)ethoxyethyl]-N-(p-toluenesulfonyl)-N′-[2-(4-chlorophenoxy)ethyl]-o-phenylenediamine] | 99 | – | – |
